Test results from patent US12624018B1, “Inhibitors of RIPK2 and medical uses thereof” (Odyssey Therapeutics, Inc., priority 2022, dated 2026).

Target: T1, RIPK2 enzyme (Homo sapiens, UniProt O43353)
T1 construct: purchased Carna 09-128
Test: RIPK2 inhibition (ADP-Glo Kinase Assay)
Type: biochemical
Conditions: RIPK2 5 nM, ATP 150 μM, MBP substrate, read-out: RIPK2 IC50
Description: RIPK2 inhibition was measured as follows:
The V9102 ADP-Glo Kinase Assay (including ultrapure ATP, 10 mM) was purchased from Promega. Native swine MBP was used as the substrate for the reaction and was purchased from SignalChem Biotech (catalogue number M42-51N). Assay buffer used for the assay consisted of the following components: MgCl2 (final concentration of 10 mM), Brij-35 (0.01%), DTT (final concentration of 2 mM), BSA (0.05%), EGTA (final concentration of 1 mM), and HEPE (pH 7.5 at final concentration of 50 mM).
Method: In a 384 well plate, 10 nL of test compound was dispensed using Echo550 and mixed with RIPK2 enzyme (final concentration of 5 nM) in assay buffer for 30 minutes at room temperature. […] Then ADP-Glo reagent was added and incubated for 60 min at room temperature. Last, Kinase Detection Reagent was added to the mixture and incubated for 60 min. The resulting luminescent signal was measured with an Envision reader to determine the amount of ADP produced. All plates contained vehicle controls (10 nL DMSO only) as a reference for the high control (0% kinase inhibition), and wells with no RIPK2 enzyme as reference for low control (100% kinase inhibition). Data were analyzed to determine the percent inhibition of ADP production in the presence of test compound using both low and high controls.

T1 sequence (O43353 1-299 limits assumed): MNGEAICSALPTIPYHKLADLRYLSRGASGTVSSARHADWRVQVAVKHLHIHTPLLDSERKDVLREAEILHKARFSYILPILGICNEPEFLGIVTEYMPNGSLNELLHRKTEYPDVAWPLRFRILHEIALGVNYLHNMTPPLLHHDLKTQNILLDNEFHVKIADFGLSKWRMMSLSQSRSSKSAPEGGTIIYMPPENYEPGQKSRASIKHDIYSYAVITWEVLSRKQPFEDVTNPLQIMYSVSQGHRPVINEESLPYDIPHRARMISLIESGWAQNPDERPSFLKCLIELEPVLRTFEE

Compound	IC50
Cc1cc(CC(=O)Nc2cnn(C(C)(C)C)c2)ccc1Oc1ccnc2ccc(N3C(=O)CCC3C)cc12 (single isomer, unassigned) [Compound 291, N-(1-(tert-butyl)-1H-pyrazol-4-yl)-2-(3-methyl-4-((6-(2-methyl-5-oxopyrrolidin-1-yl)quinolin-4-yl)oxy)phenyl) acetamide]	< 2.5 nM
Cc1cc(CC(=O)Nc2cnn(C(C)(C)C)c2)ccc1Oc1ccnc2ccc(N3C(=O)CCC3C)cc12 (single isomer, unassigned) [Compound 292, N-(1-(tert-butyl)-1H-pyrazol-4-yl)-2-(3-methyl-4-((6-(2-methyl-5-oxopyrrolidin-1-yl)quinolin-4-yl)oxy)phenyl) acetamide]	< 2.5 nM
Cc1cc(CC(=O)Nc2cnn(C(C)(C)C)c2)ccc1Oc1ccnc2ccc(N3CC(CO)OC3=O)cc12 (single isomer, unassigned) [Compound 317, N-(1-(tert-butyl)-1H-pyrazol-4-yl)-2-(4-((6-(5-(hydroxymethyl)-2-oxooxazolidin-3-yl)quinolin-4-yl)oxy)-3-methylphenyl) acetamide]	< 2.5 nM
Cc1cc(CC(=O)Nc2cnn(C(C)(C)C)c2)ccc1Oc1ccnc2ccc(N3CC(CO)OC3=O)cc12 (single isomer, unassigned) [Compound 318, N-(1-(tert-butyl)-1H-pyrazol-4-yl)-2-(4-((6-(5-(hydroxymethyl)-2-oxooxazolidin-3-yl)quinolin-4-yl)oxy)-3-methylphenyl) acetamide]	< 2.5 nM
Cc1cc(CC(=O)Nc2cnn(C(C)(C)C)c2)ccc1Oc1ccnc2ccc(N3CC(CN)OC3=O)cc12 (single isomer, unassigned) [Compound 319, 2-(4-((6-(5-(aminomethyl)-2-oxooxazolidin-3-yl)quinolin-4-yl)oxy)-3-methylphenyl)-N-(1-(tert-butyl)-1H-pyrazol-4-yl)acetamide]	< 2.5 nM
Cc1cc(CC(=O)Nc2cnn(C(C)(C)C)c2)ccc1Oc1ccnc2ccc(N3CC(CN)OC3=O)cc12 (single isomer, unassigned) [Compound 320, 2-(4-((6-(5-(aminomethyl)-2-oxooxazolidin-3-yl)quinolin-4-yl)oxy)-3-methylphenyl)-N-(1-(tert-butyl)-1H-pyrazol-4-yl)acetamide]	< 2.5 nM
Cc1cc(CC(=O)Nc2cnn(C(C)(C)C)c2)ccc1Oc1ccnc2ccc([S+](C)[O-])cc12 (single isomer, unassigned) [Compound 321, N-(1-(tert-butyl)-1H-pyrazol-4-yl)-2-(3-methyl-4-((6-(methylsulfinyl)quinolin-4-yl)oxy)phenyl)acetamide]	< 2.5 nM
Cc1cc(CC(=O)Nc2cnn(C(C)(C)C)c2)ccc1Oc1ccnc2ccc([S+](C)[O-])cc12 (single isomer, unassigned) [Compound 322, N-(1-(tert-butyl)-1H-pyrazol-4-yl)-2-(3-methyl-4-((6-(methylsulfinyl)quinolin-4-yl)oxy)phenyl)acetamide]	< 2.5 nM
Cc1cc(CC(=O)Nc2cnn(C(C)(C)C)c2)ccc1Oc1ccnc2ccc(N3CCC(O)C3=O)cc12 (single isomer, unassigned) [Compound 326, N-(1-(tert-butyl)-1H-pyrazol-4-yl)-2-(4-((6-(3-hydroxy-2-oxopyrrolidin-1-yl)quinolin-4-yl)oxy)-3-methylphenyl) acetamide]	< 2.5 nM
Cc1cc(CC(=O)Nc2cnn(C(C)(C)C)c2)ccc1Oc1ccnc2ccc(N3CCC(O)C3=O)cc12 (single isomer, unassigned) [Compound 327, N-(1-(tert-butyl)-1H-pyrazol-4-yl)-2-(4-((6-(3-hydroxy-2-oxopyrrolidin-1-yl)quinolin-4-yl)oxy)-3-methylphenyl) acetamide]	< 2.5 nM
Cc1c(Oc2ccnc3ccc(C(=O)N4CCC(O)C4)cc23)ccc(CC(=O)Nc2cnn(C(C)(C)C)c2)c1F (single isomer, unassigned) [Compound 351, N-(1-(tert-butyl)-1H-pyrazol-4-yl)-2-(2-fluoro-4-((6-(3-hydroxy-pyrrolidine-1-carbonyl)quinolin-4-yl)oxy)-3-methyl-phenyl) acetamide]	< 2.5 nM

The next lines start with the values.

IC50	Compound
< 2.5 nM	Cc1cc(CC(=O)Nc2cnn(C(C)(C)C)c2)ccc1Oc1ccnc2ccc(S(=O)(=O)C3CC(N)C3)cc12 (single isomer, unassigned) [Compound 283, 2-(4-((6-((-3-aminocyclobutyl)sulfonyl)quinolin-4-yl)oxy)-3-methylphenyl)-N-(1-(tert-butyl)-1H-pyrazol-4-yl)acetamide]
< 2.5 nM	Cc1c(Oc2ccnc3ccc(S(=O)(=O)C4CC(O)C4)cc23)ccc(CC(=O)Nc2cnn(C(C)(C)C)c2)c1F (single isomer, unassigned) [Compound 285, N-(1-(tert-butyl)-1H-pyrazol-4-yl)-2-(2-fluoro-4-((6-((-3-hydroxycyclobutyl)sulfonyl)quinolin-4-yl)oxy)-3-methylphenyl)acetamide]
< 2.5 nM	Cc1c(Oc2ccnc3ccc(S(=O)(=O)C4CC(O)C4)cc23)ccc(CC(=O)Nc2cnn(C(C)(C)C)c2)c1F (single isomer, unassigned) [Compound 286, N-(1-(tert-butyl)-1H-pyrazol-4-yl)-2-(2-fluoro-4-((6-((-3-hydroxycyclobutyl)sulfonyl)quinolin-4-yl)oxy)-3-methylphenyl)acetamide]
< 2.5 nM	Cc1c(Oc2ccnc3ccc(S(=O)(=O)C4CC(N)C4)cc23)ccc(CC(=O)Nc2cnn(C(C)(C)C)c2)c1F (single isomer, unassigned) [Compound 287, 2-(4-((6-((-3-aminocyclobutyl)sulfonyl)quinolin-4-yl)oxy)-2-fluoro-3-methylphenyl)-N-(1-(tert-butyl)-1H-pyrazol-4-yl)acetamide]
< 2.5 nM	Cc1c(Oc2ccnc3ccc(S(=O)(=O)C4CC(N)C4)cc23)ccc(CC(=O)Nc2cnn(C(C)(C)C)c2)c1F (single isomer, unassigned) [Compound 288, 2-(4-((6-((-3-aminocyclobutyl)sulfonyl)quinolin-4-yl)oxy)-2-fluoro-3-methylphenyl)-N-(1-(tert-butyl)-1H-pyrazol-4-yl)acetamide]
< 2.5 nM	Cc1c(Oc2ccnc3ccc(N4C(=O)CCC4C)cc23)ccc(CC(=O)Nc2cnn(C(C)(C)C)c2)c1F (single isomer, unassigned) [Compound 296, N-(1-(tert-butyl)-1H-pyrazol-4-yl)-2-(2-fluoro-3-methyl-4-((6-(2-methyl-5-oxopyrrolidin-1-yl)quinolin-4-yl)oxy)phenyl) acetamide]
< 2.5 nM	Cc1c(Oc2ccnc3ccc(N4C(=O)CCC4C)cc23)ccc(CC(=O)Nc2cnn(C(C)(C)C)c2)c1F (single isomer, unassigned) [Compound 297, N-(1-(tert-butyl)-1H-pyrazol-4-yl)-2-(2-fluoro-3-methyl-4-((6-(2-methyl-5-oxopyrrolidin-1-yl)quinolin-4-yl)oxy)phenyl) acetamide]
< 2.5 nM	Cc1c(Oc2ccnc3ccc(C4CCNC4=O)cc23)ccc(CC(=O)Nc2cnn(C(C)(C)C)c2)c1F (single isomer, unassigned) [Compound 304, N-(1-(tert-butyl)-1H-pyrazol-4-yl)-2-(2-fluoro-3-methyl-4-((6-(2-oxopyrrolidin-3-yl)quinolin-4-yl)oxy)phenyl)acetamide]
< 2.5 nM	Cc1c(Oc2ccnc3ccc(C4CCNC4=O)cc23)ccc(CC(=O)Nc2cnn(C(C)(C)C)c2)c1F (single isomer, unassigned) [Compound 305, N-(1-(tert-butyl)-1H-pyrazol-4-yl)-2-(2-fluoro-3-methyl-4-((6-(2-oxopyrrolidin-3-yl)quinolin-4-yl)oxy)phenyl)acetamide]
< 2.5 nM	Cc1c(Oc2ccnc3ccc([S+](C)[O-])cc23)ccc(CC(=O)Nc2cnn(C(C)(C)C)c2)c1F (single isomer, unassigned) [Compound 323, N-(1-(tert-butyl)-1H-pyrazol-4-yl)-2-(2-fluoro-3-methyl-4-((6-(methylsulfinyl)quinolin-4-yl)oxy)phenyl)acetamide]
< 2.5 nM	Cc1c(Oc2ccnc3ccc([S+](C)[O-])cc23)ccc(CC(=O)Nc2cnn(C(C)(C)C)c2)c1F (single isomer, unassigned) [Compound 324, N-(1-(tert-butyl)-1H-pyrazol-4-yl)-2-(2-fluoro-3-methyl-4-((6-(methylsulfinyl)quinolin-4-yl)oxy)phenyl)acetamide]
< 2.5 nM	Cc1c(Oc2ccnc3ccc(C(=O)N4CCC(O)C4)cc23)ccc(CC(=O)Nc2cnn(C(C)(C)C)c2)c1F (single isomer, unassigned) [Compound 352, N-(1-(tert-butyl)-1H-pyrazol-4-yl)-2-(2-fluoro-4-((6-(3-hydroxy-pyrrolidine-1-carbonyl)quinolin-4-yl)oxy)-3-methyl-phenyl) acetamide]
< 2.5 nM	Cc1c(Oc2ccnc3ccc(C(=O)N4CCC(N)C4)cc23)ccc(CC(=O)Nc2cnn(C(C)(C)C)c2)c1F (single isomer, unassigned) [Compound 353, 2-(4-((6-(3-amino-pyrrolidine-1-carbonyl)quinolin-4-yl)oxy)-2-fluoro-3-methyl-phenyl)-N-(1-(tert-butyl)-1H-pyrazol-4-yl)acetamide]
